Values after ≈ are worked out from the molar mass of the structure shown.
Assays:
[1] = tested on: acyl CoA:cholesterol acyltransferase (ACAT); test: Assay for ACAT inhibitory activity using hepatic microsomes, cholesterol and 14C-labeled oleoyl-CoA; type: biochemical
Procedure: In the method, ACAT activity was determined using hepatic microsomes as a source of ACAT with substrates of cholesterol and ^14C-labeled oleoyl-CoA. The radioactivity of the reaction product cholesterol ester was estimated as the ACAT activity.
In detail, a reaction mixture was prepared as follows. […] To stabilize enzyme reaction, bovine serum albumin was added to the mixture to a final concentration of 30 μM. Then, a sample dissolved in DMSO or methanol was added to the mixture. The resulting reaction mixture was preincubated at 37° C. for 30 min. The enzyme reaction was then initiated by adding [1-^14C]-oleoyl Coenzyme A solution to a final concentration of 0.04 μCi. After 30 min of incubation at 37° C., the reaction was stopped by addition of 1 ml of an isopropanol-heptane solution. Then, 0.6 ml of n-heptane and 0.4 ml of KPB buffer were added to the terminated reaction mixture. The mixture was well mixed and allowed to stand at room temperature for 2 min. After phase separation, 200 μl of the supernatant was put into a scintillation vial. After adding 4 ml of a scintillation cocktail (Lipoluma, Lumac Co.) to the vial, the amount of synthesized cholesteryl oleate was measured with a scintillation counter (Packard Delta-200). The inhibitory activity versus ACAT was calculated according to the following Equation 1:
Inhibitory activity (%)=[1−(T−B/C−B)]×100
T: cpm in a test reaction mixture that contains a compound of the present invention along with an enzyme source;

[2] = tested on: Tenebrio molitor L larvae; test: Diet (wheat bran) assay against Tenebrio molitor L larvae: larval weight, growth, killing; type: in vivo; settings: 1 mg mixed with 10 g wheat bran; for larval weight-reducing effect in T. molitor L larvae (FIG. 8): larval weight on day 3 and 7, compared with control
Procedure: Among the present compounds with an ACAT inhibitory activity, the phenylpyropene A, B and C (Formulas 2 to 4) were tested for weight-reducing effect in larval insects. In this test, larvae of Tenebrio molitor L. was used as an experimental insect, which was obtained from the insect research lab, KRIBB, Korea. Healthy second-instar larvae (10-12 mm) of Tenebrio molitor L was selected 24 hrs before performing this test. Each of the compounds of Formulas 2 to 4 was dissolved in 10% acetone to a final concentration of 1 mg/ml and serially diluted. 1 ml of the diluted compound solution was mixed with […] of wheat bran commonly used as a diet. The resulting mixture was put into a glass petri dish (90×20 mm), and the petri dish was placed in a desiccator for about 2 hrs under pressure to remove the organic solvent. After being weighed, 10 highly mobile larvae of T. molitor L for each test set were placed in a petri dish (87×15 mm) with a filter paper disk, together with the mixture of the present compound and wheat bran. Then, the larvae were grown in at 25±±1° C. under 40-45% relative humidity with a 16-hour light/8-hours dark cycle. After 72 hrs, larval weight and diet intake were recorded every three days. This assay was performed on three replicates, and a control group was treated with 10% acetone.

[3] = tested on: Plutella xylostella L larvae; test: Leaf-disk bioassay against Plutella xylostella L larvae; type: in vivo; settings: treated with 0.001 to 1 mg; investigated at intervals of 24 hrs; compared with control
Procedure: Larvae of Plutella xylostella L was used as an experimental insect in this test, which was obtained from the Insect Research Lab, Korean Research Institute of Bioscience and Biotechnology (KRIBB), Oun-dong, Yusong-ku, Taejon, Korea. After being weighed accurately, a proper amount of the present compounds with an ACAT inhibitory activity were was dissolved in acetone, mixed with nine volumes of a 100 ppm Triton X-100 stock solution, and serially diluted, thus giving active compound solutions. A diet for the growth of the P. xylostella L larvae was prepared, as follows: leaves of cabbages with uniform growth were cut into leaf disks (3.0 cm in diameter), dipped in the active compound solutions for 30 sec, and dried in a hood for 60 min. Each of the active compound-treated leaf disks was put in a petri dish (55×20 mm) with a filter paper disk. Then, 10 second-instar larvae of P. xylostella L were placed on each leaf disc using a soft brush with caution not to damage the larvae, and grown in an incubator (25±1° C., 40-45% relative humidity, 16L:8D). After 24 hrs and 48 hrs, mortality was recorded. […] This leaf-disk bioassay was performed on three replicates, and LC50 (50% lethal concentration) was calculated by the Probit method developed by Finney (1982).

[4] = hepatic microsomes as source of ACAT
[5] = calculated from the μg/ml value and molecular weight

Compound | ACAT inhibitory activity ([1]; concentration 20 μg/ml) [%] | ACAT inhibitory activity ([1]; concentration 100 μg/ml) [%] | larval growth inhibition in T. molitor L larvae (FIG. 9) [2] | larval weight-reducing effect in T. molitor L larvae (FIG. 8) [2] | also measured
CCCCCCCC/C=C\CCCCCCCC(=O)Nc1c(OC)cc(OC)cc1OC [Formula 7] | 96.6 | 97.8 | – | – | –
CC(C)c1cccc(C(C)C)c1OC(=O)NS(=O)(=O)Oc1c(C(C)C)cccc1C(C)C [Formula 8] | 84.5 | 93.8 | – | – | –
Cc1cc(Cc2cc(C)cc(C(C)(C)C)c2O)c(O)c(C(C)(C)C)c1 [Formula 9] | 93.4 | 98.4 | – | – | –
O=C(/C=C/C=C/c1ccc2c(c1)OCO2)N1CCCCC1 [Formula 10] | 17.6 | 82.0 | – | – | –
CCCCCCCNC(=O)CCCCSC1NC(c2ccccc2)C(c2ccccc2)N1 (stereo not shown) [Formula 11] | 84.8 | 89.6 | – | – | –
CC(=O)OCC1(C)C2C[C@H](OC(C)=O)[C@@]3(C)Oc4cc(-c5ccccc5)oc(=O)c4[C@H](O)C3[C@@]2(C)CC[C@@H]1OC(C)=O (stereo partly shown) [phenylpyropene A] | – | – | larval growth inhibition was found | lasting larval weight-reducing effect | IC50 ([1]; calculated from the ng/ml value and molecular weight): 0.086 µM; IC50 (compound concentration to inhibit by 50% of ACAT activity) [1, 4]: 0.5 mg/L
CC(=O)OCC1(C)C(OC(C)=O)CC[C@@]2(C)C1CC[C@@]1(C)Oc3cc(-c4ccccc4)oc(=O)c3CC21 (stereo partly shown) [phenylpyropene B] | – | – | – | lasting larval weight-reducing effect | IC50 [1, 5]: 12.8 µM; IC50 (ACAT activity) [1, 4]: 6.5 mg/L (≈ 12.8 µM)
CC(=O)OC1CC[C@@]2(C)C(CC[C@@]3(C)Oc4cc(-c5ccccc5)oc(=O)c4CC23)C1(C)C (stereo partly shown) [phenylpyropene C] | – | – | larval growth inhibition was found | lasting larval weight-reducing effect | IC50 [1, 5]: 16 µM; IC50 (ACAT activity) [1, 4]: 7.2 mg/L (≈ 16 µM)
CC(=O)OC[C@@]1(C)[C@@H]2C[C@H](OC(C)=O)[C@@]3(C)Oc4cc(-c5cccnc5)oc(=O)c4[C@H](O)[C@@H]3[C@@]2(C)CC[C@@H]1OC(C)=O [pyripyropene A] | – | – | larval growth inhibition was found | – | insecticidal effect against P. xylostella L larvae (FIG. 6) [3]: lasting insecticidal effect in a dose-dependant manner; T. molitor L insect killed in the larval and pupa stages [2]: most of the T. molitor L insect was killed in the larval and pupa stages
pheophorbide a | – | – | larval growth inhibition was found | – | –

— US20090182014A1, “INSECTICIDAL COMPOSITIONS COMPRISING COMPOUNDS HAVING INHIBITORY ACTIVITY VERSUS ACYL COA: CHOLESTEROL ACYLTRANSFERASE OR SALTS THEREOF AS EFFECTIVE INGREDIENTS” (priority 2003, published 2009)
